In patent US10273224B2, “Substituted pyrimidine compounds, compositions and medicinal applications thereof” (JUBILANT BIOSYS LIMITED, priority 2013, dated 2019):

molecular target: T1, EGFR (L858R & T790M) (Homo sapiens, UniProt P00533, L858R/T790M); test: EGFR (L858R & T790M) inhibition assay, HTRF method; settings: biochemical HTRF; EGFR (T790M/L858R) 2.5 nM, ATP 5 μM, 60 min room temperature
T1 construct: GST; purchased Proqinase
In short: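 GST-EGFR T790M/L858R (2.5 nM) phosphorylating biotinylated gastrin precursor peptide (0.5 μM) with 5 μM ATP in HEPES pH 7.4/Mg/Mn buffer, 60 min room temperature; compounds from 10 μM top. HTRF read-out (Eu anti-pTyr, SA-APC), 665/620 nm; IC50 from % inhibition.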

T1 sequence (P00533 25-1210 T790M/L858R): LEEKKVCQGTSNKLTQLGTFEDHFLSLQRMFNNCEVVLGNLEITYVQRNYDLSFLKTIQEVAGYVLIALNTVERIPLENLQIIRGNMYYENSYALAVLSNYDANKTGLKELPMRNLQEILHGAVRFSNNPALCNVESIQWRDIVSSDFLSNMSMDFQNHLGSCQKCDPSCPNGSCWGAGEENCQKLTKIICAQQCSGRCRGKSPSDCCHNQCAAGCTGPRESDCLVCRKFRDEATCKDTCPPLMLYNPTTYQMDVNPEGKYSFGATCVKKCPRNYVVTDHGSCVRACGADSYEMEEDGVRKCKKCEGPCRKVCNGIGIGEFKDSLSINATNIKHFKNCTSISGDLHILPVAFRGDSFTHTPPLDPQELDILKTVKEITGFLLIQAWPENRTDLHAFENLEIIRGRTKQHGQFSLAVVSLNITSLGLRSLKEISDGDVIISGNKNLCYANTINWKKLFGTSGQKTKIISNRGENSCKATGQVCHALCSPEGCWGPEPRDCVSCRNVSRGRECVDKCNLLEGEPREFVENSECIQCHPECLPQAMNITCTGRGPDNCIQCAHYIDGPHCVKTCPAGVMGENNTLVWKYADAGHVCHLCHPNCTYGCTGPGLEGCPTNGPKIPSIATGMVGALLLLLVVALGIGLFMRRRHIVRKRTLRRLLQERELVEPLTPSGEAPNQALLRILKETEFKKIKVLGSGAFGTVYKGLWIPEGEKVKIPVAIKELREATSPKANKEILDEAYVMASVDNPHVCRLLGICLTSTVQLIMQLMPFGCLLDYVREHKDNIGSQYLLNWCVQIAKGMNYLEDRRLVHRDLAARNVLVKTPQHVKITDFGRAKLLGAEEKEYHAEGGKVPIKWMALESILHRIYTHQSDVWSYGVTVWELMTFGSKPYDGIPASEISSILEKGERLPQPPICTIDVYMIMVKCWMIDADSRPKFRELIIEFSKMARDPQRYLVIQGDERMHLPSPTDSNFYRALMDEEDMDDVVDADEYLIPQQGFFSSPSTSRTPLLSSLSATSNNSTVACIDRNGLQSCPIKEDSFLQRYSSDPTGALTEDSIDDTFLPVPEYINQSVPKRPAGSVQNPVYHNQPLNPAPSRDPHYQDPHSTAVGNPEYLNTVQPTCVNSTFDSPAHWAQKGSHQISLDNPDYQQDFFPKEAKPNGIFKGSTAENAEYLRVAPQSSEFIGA

Row | SMILES | IC50 [µM]
1 | C=CC(=O)Nc1cccc(Nc2nc(Nc3nnc(C(F)(F)F)s3)ncc2Cl)c1 [Compound I-44, N-(3-((5-chloro-2-((5-(trifluoromethyl)-1,3,4-thiadiazol-2-yl)amino)pyrimidin-4-yl)amino)phenyl)acrylamide] | > 0.1
2 | C=CC(=O)NC1CCCC(Nc2nc(Nc3cnn(C)c3)ncc2C)C1 (stereo not drawn) [Compound I-100, N-(3-((5-methyl-2-((1-methyl-1H-pyrazol-4-yl)amino)pyrimidin-4-yl)amino)cyclohexyl)acrylamide] | > 0.1
3 | C=CC(=O)Nc1ccc(F)c(Nc2nc(Nc3cc(C)no3)ncc2Cl)c1 [Compound I-118, N-(3-((5-chloro-2-((3-methylisoxazol-5-yl)amino)pyrimidin-4-yl)amino)-4-fluorophenyl)acrylamide] | 0.01 to 0.1
4 | C=CC(=O)Nc1cccc(Nc2nc(Nc3ncc(N4CCN(C)CC4)s3)ncc2Cl)c1 [Compound I-40, N-(3-((5-chloro-2-((5-(4-methylpiperazin-1-yl)thiazol-2-yl)amino)pyrimidin-4-yl)amino)phenyl)acrylamide] | 0.01 to 0.1
5 | C=CC(=O)Nc1ccc(F)c(Nc2nc(Nc3cn(C)nc3C)ncc2Cl)c1 (single isomer, unassigned) [Compound I-70, N-(3-((5-chloro-2-((1,3-dimethyl-1H-pyrazol-4-yl)amino)pyrimidin-4-yl)amino)-4-fluorophenyl)acrylamide] | < 0.01
6 | CN(C)C/C=C/C(=O)NC1CCCC(Oc2nc(Nc3cnn(C)c3)ncc2Cl)C1 (single isomer, unassigned) [I-90 (Isomer 1), (E)-N-(3-((5-chloro-2-((1-methyl-1H-pyrazol-4-yl)amino)pyrimidin-4-yl)oxy)cyclohexyl)-4-(dimethylamino)but-2-enamide] | > 0.1
7 | C=CC(=O)Nc1cccc(Nc2nc(Nc3cnn(C(C)C)c3)ncc2Cl)c1 [Compound I-4, N-(3-((5-chloro-2-((1-isopropyl-1H-pyrazol-4-yl)amino)pyrimidin-4-yl)amino)phenyl)acrylamide] | 0.01 to 0.1
8 | C=CC(=O)Nc1cccc(Nc2nc(Nc3cnn(CCOC)c3C)ncc2Cl)c1 [Compound I-3, N-(3-((5-chloro-2-((1-(2-methoxyethyl)-5-methyl-1H-pyrazol-4-yl)amino)pyrimidin-4-yl)amino)phenyl)acrylamide] | 0.01 to 0.1
9 | C=C(C)C(=O)Nc1cccc(Nc2nc(Nc3cnn(C4CCN(C)CC4)c3)ncc2Cl)c1 [Compound I-9, N-(3-((5-chloro-2-((1-(1-methylpiperidin-4-yl)-1H-pyrazol-4-yl)amino)pyrimidin-4-yl)amino)phenyl)methacrylamide] | > 0.1
10 | CC(Nc1nc(Nc2cnn(C)c2)ncc1Cl)c1cccc(NC(=O)/C=C/CN(C)C)c1 (stereo not drawn) [Compound I-57, (E)-N-(3-(1-((5-chloro-2-((1-methyl-1H-pyrazol-4-yl)amino)pyrimidin-4-yl)amino)ethyl)phenyl)-4-(dimethylamino)but-2-enamide] | > 0.1
11 | C=CC(=O)Nc1cc(Cl)cc(Nc2nc(Nc3cnn(C)c3)ncc2Cl)c1 [Compound I-35, N-(3-chloro-5-((5-chloro-2-((1-methyl-1H-pyrazol-4-yl)amino)pyrimidin-4-yl)amino)phenyl)acrylamide] | < 0.01
12 | C=CC(=O)NCC1CCCC(Nc2nc(Nc3cnn(C)c3)ncc2Cl)C1 (stereo not drawn) [Compound I-108, N-((3-((5-chloro-2-((1-methyl-1H-pyrazol-4-yl)amino)pyrimidin-4-yl)amino)cyclohexyl)methyl)acrylamide] | > 0.1
13 | C=CC(=O)Nc1cc(Nc2nc(Nc3cnn(C4CCN(C)CC4)c3)ncc2Cl)ccc1F [Compound I-67, N-(5-((5-chloro-2-((1-(1-methylpiperidin-4-yl)-1H-pyrazol-4-yl)amino)pyrimidin-4-yl)amino)-2-fluorophenyl)acrylamide] | 0.01 to 0.1
14 | C=CC(=O)Nc1cccc(Nc2nc(Nc3cnn(C4CCC(O)C4)c3)ncc2F)c1 (stereo not drawn) [Compound I-37, N-(3-((5-fluoro-2-((1-(3-hydroxycyclopentyl)-1H-pyrazol-4-yl)amino)pyrimidin-4-yl)amino)phenyl)acrylamide] | > 0.1
15 | C=CC(=O)Nc1cccc(Nc2nc(Nc3cn(C)cn3)ncc2Cl)c1 [Compound I-60, N-(3-((5-chloro-2-((1-methyl-1H-imidazol-4-yl)amino)pyrimidin-4-yl)amino)phenyl)acrylamide] | 0.01 to 0.1
16 | C=CC(=O)Nc1cccc(Nc2nc(Nc3cnn(C)c3)ncc2C2CC2)c1 [Compound I-76, N-(3-((5-cyclopropyl-2-((1-methyl-1H-pyrazol-4-yl)amino)pyrimidin-4-yl)amino)phenyl)acrylamide] | 0.01 to 0.1
17 | C=CC(=O)Nc1cccc(N(C)c2nc(Nc3cnn(C4CCN(C)CC4)c3)ncc2Cl)c1 [Compound I-72, N-(3-((5-chloro-2-((1-(1-methylpiperidin-4-yl)-1H-pyrazol-4-yl)amino)pyrimidin-4-yl)(methyl)amino)phenyl)acrylamide] | 0.01 to 0.1
18 | C=CS(=O)(=O)Nc1cccc(Nc2nc(Nc3cnn(C)c3)ncc2Cl)c1 [Compound I-65, N-(3-((5-chloro-2-((1-methyl-1H-pyrazol-4-yl)amino)pyrimidin-4-yl)amino)phenyl)ethenesulfonamide] | 0.01 to 0.1
19 | CN1CCC(n2cc(Nc3ncc(Cl)c(Nc4cccc(NC(=O)C=C5CCCC5)c4)n3)cn2)CC1 [Compound I-30, N-(3-((5-chloro-2-((1-(1-methylpiperidin-4-yl)-1H-pyrazol-4-yl)amino)pyrimidin-4-yl)amino)phenyl)-2-cyclopentylideneacetamide] | > 0.1
20 | C=CC(=O)Nc1cc(Nc2nc(Nc3cnn(C4CCN(C)CC4)c3)ncc2Cl)c(F)cc1F [Compound I-69, N-(5-((5-chloro-2-((1-(1-methylpiperidin-4-yl)-1H-pyrazol-4-yl)amino)pyrimidin-4-yl)amino)-2,4-difluorophenyl)acrylamide] | < 0.01
21 | C=CC(=O)Nc1ccc(F)c(Nc2nc(Nc3onc(C)c3C)ncc2Cl)c1 [Compound I-119, N-(3-((5-chloro-2-((3,4-dimethylisoxazol-5-yl)amino)pyrimidin-4-yl)amino)-4-fluorophenyl)acrylamide] | > 0.1
